Test results: patent US20260167677A1, “ANTI-ADAM10 ANTIBODIES AND USES IN TREATMENT OF CANCER” (Memorial Sloan Kettering Cancer Center, priority 2022, published 2026)

Key:
[1] = system: xenografted COLO205 cells; assay: Mouse model of CRC using xenografted COLO205 cells; type: in vivo; details: first study; 1H5 30 mg/kg i.p. biweekly, irinotecan 20 mg/kg i.p. once a week
Description: For the mouse model, COLO205 cells were grown in monolayer culture, harvested by trypsinization, and implanted subcutaneously into the right flank of 6- to 8-week-old female athymic nude mice. Approximately 10 million cells were injected per mouse. Mice were randomized into 4 groups (each n=4).
Tumor volume was determined by external caliper and calculated by the modified ellipsoidal formula: V=½(Length×Width^2). Antitumor efficacy was calculated as (1-dT/dC)[…], where dT is the final tumor volume minus the starting tumor volume from the treatment group, and dC is the final tumor volume minus the starting tumor volume of the control group (Rios-Doria et al., 2015). Error bars were calculated as SEM. The mouse body weight and general health were monitored daily.
In a second study, 1H5 at two different doses was used in the mouse model. For the mouse model, approximately five million cells were implanted (subcutaneous with Matrigel) into 6- to 8-week-old female athymic nude mice. Mice were randomized into 3 groups (each n=5).

[2] = biological target: T1, human ADAM10 ECD (Homo sapiens, UniProt O14672); assay: Fluorogenic peptide cleavage assay, human ADAM10 ECD; type: biochemical; details: 1:1 molar ratio; human or bovine ADAM10 ECD not told apart
T1 construct: Human ADAM10 ECD (20-650); Fc-tag (human); made in house; host or cells: baculovirus-infected Hi5 insect cells
T1 sequence (O14672 20-650): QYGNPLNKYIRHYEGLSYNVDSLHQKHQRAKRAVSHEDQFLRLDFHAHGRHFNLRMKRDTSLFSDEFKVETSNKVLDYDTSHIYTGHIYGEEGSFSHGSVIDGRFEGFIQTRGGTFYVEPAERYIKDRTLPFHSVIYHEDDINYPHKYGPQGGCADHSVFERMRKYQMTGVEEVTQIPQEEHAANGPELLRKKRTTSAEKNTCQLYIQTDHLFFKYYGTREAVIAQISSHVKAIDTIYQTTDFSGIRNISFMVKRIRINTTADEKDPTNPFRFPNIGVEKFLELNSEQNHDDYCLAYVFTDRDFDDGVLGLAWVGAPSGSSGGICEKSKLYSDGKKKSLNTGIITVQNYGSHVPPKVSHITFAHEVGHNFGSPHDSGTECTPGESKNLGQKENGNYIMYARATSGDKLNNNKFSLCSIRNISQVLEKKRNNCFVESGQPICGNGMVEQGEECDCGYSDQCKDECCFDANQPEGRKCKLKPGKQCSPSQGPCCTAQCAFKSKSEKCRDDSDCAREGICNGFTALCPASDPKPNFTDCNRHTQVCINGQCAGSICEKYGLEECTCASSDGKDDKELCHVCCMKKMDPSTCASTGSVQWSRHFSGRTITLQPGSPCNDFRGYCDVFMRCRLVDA
Description: ADAM10 ECD-antibody or ADAM10 ECD-inhibitor (broad spectrum metalloprotease inhibitor GM6001) complexes were formed at a 1:1 molar ratio prior to the assay. The assay was carried out by mixing 50 μM of a fluorogenic peptide substrate Mca-PLAQAV-Dpa with ADAM10-antibody/inhibitor complexes at 37° C., and monitoring the progress of the enzymatic reaction by fluorescence emission (excitation 320 nm and emission 405 nm) over a time course of 1 hour using a SpectraMax M5. ADAM10 ECD (bovine or human) alone was used as positive control. The substrate peptide was derived from TNFalpha and contains a highly fluorescent 7-methoxycoumarin group and a quencher group, 2,4-dinitrophenyl. ADAM10 cleaves the amide bond between the fluorescent and the quencher group causing an increase in fluorescence (Seegar et al., 2017; Black & Becherer, 1998).

Row | Compound | tumor growth inhibition [1] [%] | effect on substrate cleavage [2]
1 | CCc1c2c(nc3ccc(OC(=O)N4CCC(N5CCCCC5)CC4)cc13)-c1cc3c(c(=O)n1C2)COC(=O)[C@]3(O)CC [Irinotecan, irinotecan, reference compound] | 48 | 
2 | CNC(=O)[C@H](Cc1c[nH]c2ccccc12)NC(=O)[C@@H](CC(=O)NO)CC(C)C [broad-spectrum inhibitor, GM6001, reference compound] |  | marginal inhibition
